Results from PubChem BioAssay AID504416 (Johns Hopkins Ion Channel Center, 2011).
Active and inactive are the calls of the source.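 Rule for the calls: active = raises or lowers thallium flux through KCNQ4 potassium channels at some tested dose, with a fitted dose response curve; inactive = no effect at any dose or no curve.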

Target: Potassium voltage-gated channel subfamily KQT member 4 (Homo sapiens) (UniProt P56696)
Experiment: KCNQ4 thallium flux concentration-response – KCNQ4-expressing cells, selectivity assay for KCNQ2 activator project, dose response (AID 504416)
Details: FluxOR thallium flux fluorescence

Chain of Potassium voltage-gated channel subfamily KQT member 4 (Homo sapiens) (P56696 whole entry, looked up): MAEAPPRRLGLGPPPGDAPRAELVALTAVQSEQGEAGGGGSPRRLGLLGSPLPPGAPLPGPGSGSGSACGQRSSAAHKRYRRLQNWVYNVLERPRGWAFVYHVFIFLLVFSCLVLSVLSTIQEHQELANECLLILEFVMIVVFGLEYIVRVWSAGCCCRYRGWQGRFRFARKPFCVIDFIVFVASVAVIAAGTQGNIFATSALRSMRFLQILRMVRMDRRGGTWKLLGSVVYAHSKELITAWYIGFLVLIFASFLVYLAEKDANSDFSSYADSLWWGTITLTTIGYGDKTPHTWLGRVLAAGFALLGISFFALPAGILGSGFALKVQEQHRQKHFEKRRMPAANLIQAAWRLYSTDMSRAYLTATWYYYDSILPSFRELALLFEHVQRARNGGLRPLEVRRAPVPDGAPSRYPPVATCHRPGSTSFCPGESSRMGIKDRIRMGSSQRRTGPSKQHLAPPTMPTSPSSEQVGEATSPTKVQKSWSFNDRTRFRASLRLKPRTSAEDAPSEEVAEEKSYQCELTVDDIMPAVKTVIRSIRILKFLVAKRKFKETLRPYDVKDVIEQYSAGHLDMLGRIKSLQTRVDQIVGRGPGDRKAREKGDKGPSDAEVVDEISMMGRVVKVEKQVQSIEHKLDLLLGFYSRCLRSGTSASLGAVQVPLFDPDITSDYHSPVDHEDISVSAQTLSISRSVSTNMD

`Cc1cc(C)c(NC(=O)C2CC3CCC2C3)c(C)c1` (configuration not stated) gave an EC50 of 2.4 µM.

With `Cc1cccc(C)c1NC(=O)C1CC2CCC1C2` (configuration not stated) the potentiation (at 30 µM (top of the series)) was “inactive”.
